Data on 4 molecules can be found in the NIST ThermoML archive (doi:10.1021/je500455u).

For this data set the following is noted: 101.33 kPa, Liquid, Vibrating tube method.

Numbers after ± are expanded uncertainties.

Regarding `CO` [methanol], the mass density (298.15 K) stood at 786.58 ± 0.23 kg/m3.
Regarding `FC(F)(F)C1(F)C(F)(F)C(F)(F)C(F)(F)C(F)(F)C1(F)F` [perfluoro(methylcyclohexane)], the mass density is on record as 1841 ± 1 kg/m3 (278.15 K); 1827.6 ± 1 kg/m3 (283.15 K); 1814 ± 1 kg/m3 (288.15 K); 1800.4 ± 1 kg/m3 (293.15 K); 1786.6 ± 1 kg/m3 (298.15 K); 1772.7 ± 1 kg/m3 (303.15 K). Further, the mass density is, setting by setting: (308.15 K) 1758.7 ± 0.9 kg/m3; (313.15 K) 1744.5 ± 0.9 kg/m3; (318.15 K) 1730.3 ± 0.9 kg/m3; (323.15 K) 1715.8 ± 0.9 kg/m3; (328.15 K) 1701.2 ± 0.9 kg/m3; (333.15 K) 1686.4 ± 0.9 kg/m3. Besides, the mass density is, setting by setting: (338.15 K) 1671.5 ± 0.9 kg/m3; (343.15 K) 1656.3 ± 0.8 kg/m3.
For `FC(F)(F)C(F)(F)C(F)(F)C(F)(F)C(F)(F)C(F)(F)F` [perfluorohexane], the mass density stood at 1742.5 ± 0.9 kg/m3 (278.15 K); 1728.3 ± 0.9 kg/m3 (283.15 K); 1713.8 ± 0.9 kg/m3 (288.15 K); 1699.2 ± 0.9 kg/m3 (293.15 K); 1684.4 ± 0.9 kg/m3 (298.15 K); 1669.4 ± 0.9 kg/m3 (303.15 K). The mass density by setting is: (308.15 K) 1654.1 ± 0.8 kg/m3; (313.15 K) 1638.6 ± 0.8 kg/m3; (318.15 K) 1622.9 ± 0.8 kg/m3; (323.15 K) 1606.4 ± 0.8 kg/m3; (328.15 K) 1590.5 ± 0.8 kg/m3.
Consider `OC(C(F)(F)F)C(F)(F)F` [1,1,1,3,3,3-hexafluoro-2-propanol], for which, where the note is “298.15 K”, the mass density stood at 1604.84 ± 0.78 kg/m3.
